The values below come from patent publication US9273058B2 (BRISTOL-MYERS SQUIBB COMPANY, priority 2013, dated 2016).

One test concerns the target CK1ε (Homo sapiens, UniProt P49674). The test can be described thus: CK1ε kinase assay (Caliper LabChip electrophoretic separation of fluoresceinated peptide substrate and product). In kind it is biochemical. The following applies: 200 pM CK1ε, 50 μM ATP, 1.5 μM peptide, 22 hours at room temperature. In outline: (§1)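 Incubated for twenty-two hours at ambient temperature, then quenched with EDTA and analyzed by electrophoretic separation of unphosphorylated and phosphorylated peptide.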

In a further test the target is CK1δ (Homo sapiens, UniProt P48730). As to the kind of experiment: CK1δ kinase assay (Caliper LabChip electrophoretic separation of fluoresceinated peptide substrate and product). In kind it is biochemical. The following applies: 200 pM CK1δ, 50 μM ATP, 1.5 μM peptide, 22 hours at room temperature. In a few lines: as §1

Where two headings read alike, the source gives them in different places.

CK1ε, sequence (P49674 whole entry): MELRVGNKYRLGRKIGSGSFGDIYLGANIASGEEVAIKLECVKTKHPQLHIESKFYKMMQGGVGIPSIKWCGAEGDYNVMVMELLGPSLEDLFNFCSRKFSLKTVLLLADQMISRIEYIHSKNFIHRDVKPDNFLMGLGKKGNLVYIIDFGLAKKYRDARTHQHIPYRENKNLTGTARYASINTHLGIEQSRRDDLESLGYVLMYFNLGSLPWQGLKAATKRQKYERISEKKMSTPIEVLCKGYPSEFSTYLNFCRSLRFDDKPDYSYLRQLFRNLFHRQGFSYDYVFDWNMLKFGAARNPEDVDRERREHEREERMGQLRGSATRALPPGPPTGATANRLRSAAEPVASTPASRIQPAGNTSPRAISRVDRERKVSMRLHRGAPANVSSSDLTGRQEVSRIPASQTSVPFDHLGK
CK1δ, sequence (P48730 whole entry): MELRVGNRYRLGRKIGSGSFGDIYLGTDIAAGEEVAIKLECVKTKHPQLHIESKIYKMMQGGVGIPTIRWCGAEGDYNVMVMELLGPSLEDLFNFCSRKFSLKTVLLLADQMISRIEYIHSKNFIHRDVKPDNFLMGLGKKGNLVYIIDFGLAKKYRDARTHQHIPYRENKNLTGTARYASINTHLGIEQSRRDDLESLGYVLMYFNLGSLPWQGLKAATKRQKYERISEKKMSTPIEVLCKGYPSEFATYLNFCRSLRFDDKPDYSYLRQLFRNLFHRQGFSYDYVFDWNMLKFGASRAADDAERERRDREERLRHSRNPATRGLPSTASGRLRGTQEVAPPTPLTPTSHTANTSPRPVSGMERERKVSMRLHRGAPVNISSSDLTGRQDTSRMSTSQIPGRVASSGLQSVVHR

As to `CC(C)(C)NC(=O)N1Cc2c(C(N)=O)c(-c3ccc(F)c(Cl)c3)nn2C(C(C)(C)O)C1` (stereo not shown) [Compound A17, N^5-(tert-Butyl)-2-(3-chloro-4-fluorophenyl)-7-(2-hydroxypropan-2-yl)-6,7-dihydropyrazolo[1,5-a]pyrazine-3,5(4H)-dicarboxamide], the IC50 on CK1ε (read-out: CK1ε IC50 range) and at CK1δ (read-out: CK1δ IC50 range) was 10 to 100 nM in each case.
As to `CC(C)(C)NC(=O)N1Cc2c(C(N)=O)c(-c3ccc(F)c(Cl)c3)nn2C(C(C)(C)O)C1` (stereo not shown) [Compound A18, N^5-(tert-Butyl)-2-(3-chloro-4-fluorophenyl)-7-(2-hydroxypropan-2-yl)-6,7-dihydropyrazolo[1,5-a]pyrazine-3,5(4H)-dicarboxamide], the IC50 on CK1ε (read-out: CK1ε IC50 range) and at CK1δ (read-out: CK1δ IC50 range) was 0.01 to 10 nM each time.
`CC(C)(O)[C@@H]1CN(C(=O)NC2CC(F)(F)C2)Cc2c(C(N)=O)c(-c3ccc(F)c(Cl)c3)nn21` [Compound A19, (S)-2-(3-Chloro-4-fluorophenyl)-N^5-(3,3 - difluorocyclobutyl)-7-(2-hydroxypropan-2-yl)-6,7-dihydropyrazolo[1,5-a] pyrazine-3,5(4H)-dicarboxamide]: the IC50 at CK1ε (read-out: CK1ε IC50 range) and on CK1δ (read-out: CK1δ IC50 range) was 10 to 100 nM each time.
On to `CC(C)(O)[C@H]1CN(C(=O)NC2CC(F)(F)C2)Cc2c(C(N)=O)c(-c3ccc(F)c(Cl)c3)nn21` [Compound A20, (R)-2-(3-Chloro-4-fluorophenyl)-N^5-(3,3 difluorocyclobutyl)-7-(2-hydroxypropan-2-yl)-6,7-dihydropyrazolo[1,5-a] pyrazine-3,5(4H)-dicarboxamide], for which the IC50 at CK1ε (read-out: CK1ε IC50 range) and on CK1δ (read-out: CK1δ IC50 range) was 0.01 to 10 nM each time.
Regarding `CC(C)(C)NC(=O)N1Cc2c(C(N)=O)c(-c3ccc(F)c(Cl)c3)nn2C(COC(F)F)C1` (stereo not shown) [Compound A21, N^5-(tert-Butyl)-2-(3-chloro-4-fluorophenyl)-7-((difluoromethoxy)methyl)-6,7-dihydropyrazolo[1,5-a]pyrazine-3,5(4H)-dicarboxamide], the IC50 was in the range of 0.01 to 10 nM on CK1ε (read-out: CK1ε IC50 range) and 10 to 100 nM on CK1δ (read-out: CK1δ IC50 range).
Taken in the same sequence, the figures for `CC(C)(C)NC(=O)N1Cc2c(C(N)=O)c(-c3ccc(F)c(Cl)c3)nn2C(COC(F)F)C1` (stereo not shown) [Compound A22, N^5-(tert-Butyl)-2-(3-chloro-4-fluorophenyl)-7-((difluoromethoxy)methyl)-6,7-dihydropyrazolo[1,5-a]pyrazine-3,5(4H)-dicarboxamide] were 0.01 to 10 nM and 0.01 to 10 nM.
With `CC(C)(C)NC(=O)N1Cc2c(C(N)=O)c(-c3ccc(F)c(Cl)c3)nn2C(C(=O)NC2CC2)C1` (stereo not shown) [Compound A23, N^5-(tert-Butyl)-2-(3-chloro-4-fluorophenyl)-N^7-cyclopropyl-6,7-dihydropyrazolo[1,5-a]pyrazine-3,5,7(4H)-tricarboxamide], the figures for the IC50 on CK1ε (read-out: CK1ε IC50 range) and on CK1δ (read-out: CK1δ IC50 range) were 10 to 100 nM and 100 to 2000 nM, respectively.
Taken in the same sequence, the figures for `CC(C)(C)NC(=O)N1Cc2c(C(N)=O)c(-c3ccc(F)c(Cl)c3)nn2C(C(=O)NC2CC2)C1` (stereo not shown) [Compound A24, N^5-(tert-Butyl)-2-(3-chloro-4-fluorophenyl)-N^7-cyclopropyl-6,7-dihydropyrazolo[1,5-a]pyrazine-3,5,7(4H)-tricarboxamide] were 10 to 100 nM and 100 to 2000 nM.
Consider `CC1(NC(=O)N2Cc3c(C(N)=O)c(-c4ccc(Cl)c(Cl)c4)nn3C(CF)C2)CC(F)(F)C1` (stereo not shown) [Compound A27, 2-(3,4-Dichlorophenyl)-N^5-(3,3-difluoro-1-methylcyclobutyl)-7-(fluoromethyl)-6,7-dihydropyrazolo[1,5-a]pyrazine-3,5(4H)-dicarboxamide], for which the IC50 at CK1ε (read-out: CK1ε IC50 range) and at CK1δ (read-out: CK1δ IC50 range) was 0.01 to 10 nM each time.
Regarding `CC1(NC(=O)N2Cc3c(C(N)=O)c(-c4ccc(Cl)c(Cl)c4)nn3C(CF)C2)CC(F)(F)C1` (stereo not shown) [Compound A28, 2-(3,4-Dichlorophenyl)-N^5-(3,3-difluoro-1-methylcyclobutyl)-7-(fluoromethyl)-6,7-dihydropyrazolo[1,5-a]pyrazine-3,5(4H)-dicarboxamide], the IC50 at CK1ε (read-out: CK1ε IC50 range) and at CK1δ (read-out: CK1δ IC50 range) was 0.01 to 10 nM each time.
Take `NC(=O)c1c(-c2ccc(Cl)c(Cl)c2)nn2c1CN(C(=O)NC1CC(F)(F)C1)C[C@H]2CF` [Compound A29, (S)-2-(3,4-dichlorophenyl)-N^5-(3,3-difluorocyclobutyl)-7-(fluoromethyl)-6,7-dihydropyrazolo[1,5-a] pyrazine-3,5(4H)-dicarboxamide]: the IC50 at CK1ε (read-out: CK1ε IC50 range) and at CK1δ (read-out: CK1δ IC50 range) was 0.01 to 10 nM in each case.
As for `NC(=O)c1c(-c2ccc(Cl)c(Cl)c2)nn2c1CN(C(=O)NC1CC(F)(F)C1)C[C@@H]2CF` [Compound A30, (R)-2-(3,4-dichlorophenyl)-N^5-(3,3-difluorocyclobutyl)-7-(fluoromethyl)-6,7-dihydropyrazolo[1,5-a] pyrazine-3,5(4H)-dicarboxamide], the IC50 on CK1ε (read-out: CK1ε) was 0.1 nM; on CK1ε (read-out: CK1ε IC50 range), 0.01 to 10 nM; at CK1δ (read-out: CK1δ), 0.3 nM; at CK1δ (read-out: CK1δ IC50 range), 0.01 to 10 nM.
On to `CC(C)(C)NC(=O)N1Cc2c(C(N)=O)c(-c3ccc(Cl)c(Cl)c3)nn2C(C(F)F)C1` (stereo not shown) [Compound A31, N^5-(tert-Butyl)-2-(3,4-dichlorophenyl)-7-(difluoromethyl)-6,7-dihydropyrazolo[1,5-a]pyrazine-3,5(4H)-dicarboxamide], for which the IC50 on CK1ε (read-out: CK1ε IC50 range) and at CK1δ (read-out: CK1δ IC50 range) was 10 to 100 nM throughout.
On to `CC(C)(C)NC(=O)N1Cc2c(C(N)=O)c(-c3ccc(Cl)c(Cl)c3)nn2C(C(F)F)C1` (stereo not shown) [Compound A32, N^5-(tert-Butyl)-2-(3,4-dichlorophenyl)-7-(difluoromethyl)-6,7-dihydropyrazolo[1,5-a]pyrazine-3,5(4H)-dicarboxamide], for which the IC50 on CK1ε (read-out: CK1ε IC50 range) and at CK1δ (read-out: CK1δ IC50 range) was 0.01 to 10 nM each time.
For the compound `CC1CN(C(=O)NC(C)(C)C)Cc2c(C(N)=O)c(-c3ccc(Cl)c(Cl)c3)nn21` (stereo not shown) [Compound A33, N^5-(tert-Butyl)-2-(3,4-dichlorophenyl)-7-methyl-6,7-dihydropyrazolo[1,5-a]pyrazine-3,5(4H)-dicarboxamide], the IC50 on CK1ε (read-out: CK1ε IC50 range) and on CK1δ (read-out: CK1δ IC50 range) was 0.01 to 10 nM each time.
As to `CC1CN(C(=O)NC(C)(C)C)Cc2c(C(N)=O)c(-c3ccc(Cl)c(Cl)c3)nn21` (stereo not shown) [Compound A34, N^5-(tert-Butyl)-2-(3,4-dichlorophenyl)-7-methyl-6,7-dihydropyrazolo[1,5-a]pyrazine-3,5(4H)-dicarboxamide], the IC50 on CK1ε (read-out: CK1ε IC50 range) and on CK1δ (read-out: CK1δ IC50 range) was 0.01 to 10 nM throughout.
Take `C[C@@H]1CN(C(=O)NC2CC(F)(F)C2)Cc2c(C(N)=O)c(-c3ccc(Cl)c(Cl)c3)nn21` [Compound A35, (R)-2-(3,4-Dichlorophenyl)-N^5-(3,3-difluorocyclobutyl)-7-methyl-6,7-dihydropyrazolo[1,5-a]pyrazine-3,5(4H)-dicarboxamide]: the IC50 at CK1ε (read-out: CK1ε IC50 range) and at CK1δ (read-out: CK1δ IC50 range) was 0.01 to 10 nM throughout.
Take `C[C@H]1CN(C(=O)NC2CC(F)(F)C2)Cc2c(C(N)=O)c(-c3ccc(Cl)c(Cl)c3)nn21` [Compound A36, (S)-2-(3,4-Dichlorophenyl)-N^5-(3,3-difluorocyclobutyl)-7-methyl-6,7-dihydropyrazolo[1,5-c]pyrazine-3,5(4H)-dicarboxamide]: the IC50 at CK1ε (read-out: CK1ε IC50 range) and at CK1δ (read-out: CK1δ IC50 range) was 0.01 to 10 nM each time.
Turning to `CC(C)(C)NC(=O)N1Cc2c(C(N)=O)c(-c3ccc(Cl)c(Cl)c3)nn2C(C(C)(C)O)C1` (stereo not shown) [Compound A37, N^5-(tert-Butyl)-2-(3,4-dichlorophenyl)-7-(2-hydroxypropan-2-yl)-6,7-dihydropyrazolo[1,5-a]pyrazine-3,5(4H)-dicarboxamide], the values for the IC50 at CK1ε (read-out: CK1ε IC50 range) and on CK1δ (read-out: CK1δ IC50 range) were 0.01 to 10 nM and 10 to 100 nM, respectively.
Taken in the same sequence, the figures for `CC(C)(C)NC(=O)N1Cc2c(C(N)=O)c(-c3ccc(Cl)c(Cl)c3)nn2C(C(C)(C)O)C1` (stereo not shown) [Compound A38, N^5-(tert-Butyl)-2-(3,4-dichlorophenyl)-7-(2-hydroxypropan-2-yl)-6,7-dihydropyrazolo[1,5-a]pyrazine-3,5(4H)-dicarboxamide] were 0.01 to 10 nM and 0.01 to 10 nM.
In the case of `CC(C)(C)NC(=O)N1Cc2c(C(N)=O)c(-c3ccc(F)c(Cl)c3)nn2C2(C1)CC(F)(F)C2` [Compound A39, N^5′-(tert-Butyl)-2′-(3-chloro-4-fluorophenyl)-3,3-difluoro-4′H-spiro[cyclobutane-1,7′-pyrazolo[1,5-a]pyrazine]-3′,5′(6′H)-dicarboxamide], the IC50 at CK1ε (read-out: CK1ε IC50 range) and at CK1δ (read-out: CK1δ IC50 range) was 0.01 to 10 nM each time.
`NC(=O)c1c(-c2cccc(Cl)c2)nn2c1CN(C(=O)NC1(C(F)(F)F)CC1)CC2` [Compound A40, 2-(3-Chlorophenyl)-N^5-(1-(trifluoromethyl)cyclopropyl)-6,7-dihydropyrazolo[1,5-a]pyrazine-3,5(4H)-dicarboxamide]: the IC50 on CK1ε (read-out: CK1ε IC50 range) and at CK1δ (read-out: CK1δ IC50 range) was 0.01 to 10 nM throughout.
As for `CC1(NC(=O)N2CCn3nc(-c4cccc(Cl)c4)c(C(N)=O)c3C2)CC1` [Compound A42, 2-(3-Chlorophenyl)-N^5-(1-methylcyclopropyl)-6,7-dihydropyrazolo[1,5-a]pyrazine-3,5(4H)-dicarboxamide], the IC50 at CK1ε (read-out: CK1ε IC50 range) and at CK1δ (read-out: CK1δ IC50 range) was 0.01 to 10 nM in each case.
On to `CC(C)(CO)NC(=O)N1CCn2nc(-c3cccc(Cl)c3)c(C(N)=O)c2C1` [Compound A46, 2-(3-Chlorophenyl)-N^5-(1-hydroxy-2-methylpropan-2-yl)-6,7-dihydropyrazolo[1,5-a] pyrazine-3,5(4H)-dicarboxamide], for which the IC50 on CK1ε (read-out: CK1ε IC50 range) and on CK1δ (read-out: CK1δ IC50 range) was 0.01 to 10 nM in each case.
Take `COCC(C)(C)NC(=O)N1CCn2nc(-c3cccc(Cl)c3)c(C(N)=O)c2C1` [Compound A47, 2-(3-Chlorophenyl)-N^5-(1-methoxy-2-methylpropan-2-yl)-6,7-dihydropyrazolo[1,5-a] pyrazine-3,5(4H)-dicarboxamide]: the IC50 at CK1ε (read-out: CK1ε IC50 range) and on CK1δ (read-out: CK1δ IC50 range) was 0.01 to 10 nM in each case.
